Measured values from patent US10800791B2, “Triazole ACC inhibitors and uses thereof” (Gilead Apollo, LLC, priority 2015, dated 2020).
Converted amounts (≈) assume the structure as drawn. Where two headings read alike, the source gives them in different places.

How the values were obtained:
fungal (fACC2) = fungal (fACC2) (UniProt Q00955); conditions: read-out: fACC2 (in vitro ACC2 Inhibition Assay, IC50), ADP-Glo, 5 nM ACC2, 20 μM ATP, 20 μM acetyl-CoA
C. krusei = experiment: Antifungal Activity Assay (broth microtiter MIC), C. krusei; assay type: cell-based, Candida krusei; conditions: Pichia kudriavzevii, ATCC6258, 48 h
Procedure, shortened: (§1)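 Susceptibility was determined by CLSI M27-A3 broth microdilution in RPMI 1640 buffered with MOPS. Growth inhibition was scored visually after 48 h.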

Septoria tritici (St) = experiment: Growth inhibition assay of fungal pathogens, St; assay type: cell-based; conditions: Zymoseptoria tritici, 48 h
Procedure, shortened: (§2)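 Percent inhibition derived at 48 hours from OD600 and visual scores versus 2% DMSO control, with media+DMSO blank as background. Spore inocula in 17% V8 medium were sized from 48 h growth curves; compounds tested at final 50/10/2 or 2/0.4/0.08 ppm.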

[1] = system: Fusarium moniliforme (Fm); experiment: Growth inhibition assay of fungal pathogens, Fm; assay type: cell-based; conditions: for IC90: Fusarium verticillioides, 48 h, read-out: Concentration at 90% Inhibition Fm
Procedure, shortened: as §2

[2] = system: Collectotrichum graminicola (Cg); experiment: Growth inhibition assay of fungal pathogens, Cg; assay type: cell-based; conditions: 48 h
Procedure, shortened: as §2

[3] = system: Fusarium virguliforme (Fv); experiment: Growth inhibition assay of fungal pathogens, Fv; assay type: cell-based; conditions: 48 h
Procedure, shortened: as §2

human (hACC2) = human (hACC2) (Homo sapiens, UniProt O00763); experiment: In vitro ACC inhibition assay (ADP-Glo), hACC2; assay type: biochemical; conditions: 5 nM ACC2, 20 μM ATP, 20 μM acetyl-CoA
Chain of human (hACC2) (O00763 whole entry): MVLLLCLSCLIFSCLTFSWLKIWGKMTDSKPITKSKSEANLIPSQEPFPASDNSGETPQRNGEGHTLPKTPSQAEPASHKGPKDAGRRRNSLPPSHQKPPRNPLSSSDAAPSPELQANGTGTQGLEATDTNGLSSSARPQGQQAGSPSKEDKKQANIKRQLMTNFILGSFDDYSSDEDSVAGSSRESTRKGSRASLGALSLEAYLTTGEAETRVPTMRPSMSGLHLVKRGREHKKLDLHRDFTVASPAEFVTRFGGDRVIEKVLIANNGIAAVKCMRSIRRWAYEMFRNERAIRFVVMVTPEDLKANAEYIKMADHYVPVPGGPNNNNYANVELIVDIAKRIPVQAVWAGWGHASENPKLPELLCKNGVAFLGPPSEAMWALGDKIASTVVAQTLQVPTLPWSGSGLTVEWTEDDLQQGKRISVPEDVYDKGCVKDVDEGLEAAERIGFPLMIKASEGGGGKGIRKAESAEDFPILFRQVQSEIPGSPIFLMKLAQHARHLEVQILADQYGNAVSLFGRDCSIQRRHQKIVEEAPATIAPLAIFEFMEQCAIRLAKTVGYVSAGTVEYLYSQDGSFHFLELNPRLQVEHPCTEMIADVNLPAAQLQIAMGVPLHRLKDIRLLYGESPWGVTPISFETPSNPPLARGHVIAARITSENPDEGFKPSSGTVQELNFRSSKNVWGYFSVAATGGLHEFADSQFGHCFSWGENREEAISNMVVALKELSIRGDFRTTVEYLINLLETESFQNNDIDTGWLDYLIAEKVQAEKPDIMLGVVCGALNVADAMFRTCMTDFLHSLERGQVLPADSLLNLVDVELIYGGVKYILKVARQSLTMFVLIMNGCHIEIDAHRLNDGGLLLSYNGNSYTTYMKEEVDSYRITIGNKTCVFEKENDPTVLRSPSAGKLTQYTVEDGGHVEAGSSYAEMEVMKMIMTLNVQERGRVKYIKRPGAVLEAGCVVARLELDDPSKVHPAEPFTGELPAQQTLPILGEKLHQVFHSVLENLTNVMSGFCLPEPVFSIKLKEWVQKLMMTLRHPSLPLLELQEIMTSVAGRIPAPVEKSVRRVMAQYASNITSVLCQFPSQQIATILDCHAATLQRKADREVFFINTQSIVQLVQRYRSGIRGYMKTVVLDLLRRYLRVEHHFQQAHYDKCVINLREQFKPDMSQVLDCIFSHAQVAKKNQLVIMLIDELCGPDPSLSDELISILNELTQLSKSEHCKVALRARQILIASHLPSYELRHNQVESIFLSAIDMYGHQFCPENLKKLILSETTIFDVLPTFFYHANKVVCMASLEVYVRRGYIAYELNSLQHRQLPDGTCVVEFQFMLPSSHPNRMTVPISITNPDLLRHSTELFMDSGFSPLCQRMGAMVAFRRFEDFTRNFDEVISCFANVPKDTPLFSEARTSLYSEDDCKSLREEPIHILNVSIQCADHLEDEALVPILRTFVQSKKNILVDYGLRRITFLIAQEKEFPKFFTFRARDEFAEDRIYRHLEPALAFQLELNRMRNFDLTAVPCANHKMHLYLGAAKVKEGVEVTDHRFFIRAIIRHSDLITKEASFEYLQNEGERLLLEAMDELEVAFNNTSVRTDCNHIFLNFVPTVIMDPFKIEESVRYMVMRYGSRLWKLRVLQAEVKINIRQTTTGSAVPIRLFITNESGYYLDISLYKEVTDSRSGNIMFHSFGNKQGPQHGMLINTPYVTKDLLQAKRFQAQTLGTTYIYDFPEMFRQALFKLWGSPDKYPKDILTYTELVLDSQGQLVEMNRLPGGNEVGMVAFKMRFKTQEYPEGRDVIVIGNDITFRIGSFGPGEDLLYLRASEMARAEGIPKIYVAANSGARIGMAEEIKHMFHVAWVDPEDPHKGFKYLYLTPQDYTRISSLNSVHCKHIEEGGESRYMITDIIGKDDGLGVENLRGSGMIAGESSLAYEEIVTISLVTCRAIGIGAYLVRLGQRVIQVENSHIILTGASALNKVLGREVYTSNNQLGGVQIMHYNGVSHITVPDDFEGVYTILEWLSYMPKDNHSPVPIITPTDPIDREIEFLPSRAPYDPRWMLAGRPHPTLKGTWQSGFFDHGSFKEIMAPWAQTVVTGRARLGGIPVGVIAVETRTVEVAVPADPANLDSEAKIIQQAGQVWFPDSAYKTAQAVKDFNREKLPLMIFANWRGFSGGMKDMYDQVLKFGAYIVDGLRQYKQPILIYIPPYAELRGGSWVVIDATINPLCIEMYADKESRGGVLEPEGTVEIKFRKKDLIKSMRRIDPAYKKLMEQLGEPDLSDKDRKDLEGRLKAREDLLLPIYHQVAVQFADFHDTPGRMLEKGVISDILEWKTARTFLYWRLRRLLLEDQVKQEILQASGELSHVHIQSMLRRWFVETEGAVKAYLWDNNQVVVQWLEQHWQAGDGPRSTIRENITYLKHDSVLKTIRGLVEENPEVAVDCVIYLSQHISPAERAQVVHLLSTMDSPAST
Experimental: The detailed procedure is as follows. […] 10 μL ADP glo reagent was added. […] 20 μL kinase detection reagent was added.

C. parapsilosis = experiment: Antifungal Activity Assay (broth microtiter MIC), C. parapsilosis; assay type: cell-based, Candida parapsilosis; conditions: Lodderomyces parapsilosis, ATCC22019, 48 h
Procedure, shortened: as §1

[4] = system: Phytophthora capsici (Pc); experiment: Growth inhibition assay of fungal pathogens, Pc; assay type: cell-based; conditions: 48 h
Procedure, shortened: as §2

Rhizoctonia solani (Rs) = experiment: Growth inhibition assay of fungal pathogens, Rs; assay type: cell-based; conditions: 48 h
[5] = read-out: MIC, C. krusei ATCC 6258, Table 3a, 3 replicates, MIC recorded at 48 h
[6] = read-out: MIC, C. krusei ATCC 6258, Table 3b (additional results), 3 replicates, MIC recorded at 48 h
[7] = read-out: Concentration at 90% Inhibition St, Septoria tritici, growth inhibition at 48 hours vs 2% DMSO control
[8] = read-out: Concentration at 90% Inhibition St, Septoria tritici, growth inhibition vs 2% DMSO control at 48 hours
[9] = Fusarium moniliforme, growth inhibition at 48 hours vs 2% DMSO control
[10] = read-out: Concentration at 90% Inhibition Cg, Collectotrichum graminicola, growth inhibition at 48 hours vs 2% DMSO control
[11] = read-out: Concentration at 90% Inhibition Cg, Collectotrichum graminicola, growth inhibition vs 2% DMSO control at 48 hours
[12] = read-out: Concentration at 90% Inhibition Fv, Fusarium virguliforme, growth inhibition at 48 hours vs 2% DMSO control
[13] = read-out: Concentration at 90% Inhibition Fv, Fusarium virguliforme, growth inhibition vs 2% DMSO control at 48 hours
[14] = read-out: MIC, C. parapsilosis ATCC 22019, Table 3a, 3 replicates, MIC recorded at 48 h
[15] = read-out: MIC, C. parapsilosis ATCC 22019, Table 3b (additional results), 3 replicates, MIC recorded at 48 h
[16] = read-out: Concentration at 90% Inhibition Pc, Phytophthora capsici, growth inhibition at 48 hours vs 2% DMSO control
[17] = read-out: Concentration at 90% Inhibition Pc, Phytophthora capsici, growth inhibition vs 2% DMSO control at 48 hours
[18] = read-out: Concentration at 90% Inhibition Rs, Rhizoctonia solani, mycelial plugs, growth inhibition at 48 hours vs 2% DMSO control
[19] = read-out: Concentration at 90% Inhibition Rs, Rhizoctonia solani, mycelial plugs, growth inhibition vs 2% DMSO control at 48 hours

Chain of fungal (fACC2) (Q00955 whole entry): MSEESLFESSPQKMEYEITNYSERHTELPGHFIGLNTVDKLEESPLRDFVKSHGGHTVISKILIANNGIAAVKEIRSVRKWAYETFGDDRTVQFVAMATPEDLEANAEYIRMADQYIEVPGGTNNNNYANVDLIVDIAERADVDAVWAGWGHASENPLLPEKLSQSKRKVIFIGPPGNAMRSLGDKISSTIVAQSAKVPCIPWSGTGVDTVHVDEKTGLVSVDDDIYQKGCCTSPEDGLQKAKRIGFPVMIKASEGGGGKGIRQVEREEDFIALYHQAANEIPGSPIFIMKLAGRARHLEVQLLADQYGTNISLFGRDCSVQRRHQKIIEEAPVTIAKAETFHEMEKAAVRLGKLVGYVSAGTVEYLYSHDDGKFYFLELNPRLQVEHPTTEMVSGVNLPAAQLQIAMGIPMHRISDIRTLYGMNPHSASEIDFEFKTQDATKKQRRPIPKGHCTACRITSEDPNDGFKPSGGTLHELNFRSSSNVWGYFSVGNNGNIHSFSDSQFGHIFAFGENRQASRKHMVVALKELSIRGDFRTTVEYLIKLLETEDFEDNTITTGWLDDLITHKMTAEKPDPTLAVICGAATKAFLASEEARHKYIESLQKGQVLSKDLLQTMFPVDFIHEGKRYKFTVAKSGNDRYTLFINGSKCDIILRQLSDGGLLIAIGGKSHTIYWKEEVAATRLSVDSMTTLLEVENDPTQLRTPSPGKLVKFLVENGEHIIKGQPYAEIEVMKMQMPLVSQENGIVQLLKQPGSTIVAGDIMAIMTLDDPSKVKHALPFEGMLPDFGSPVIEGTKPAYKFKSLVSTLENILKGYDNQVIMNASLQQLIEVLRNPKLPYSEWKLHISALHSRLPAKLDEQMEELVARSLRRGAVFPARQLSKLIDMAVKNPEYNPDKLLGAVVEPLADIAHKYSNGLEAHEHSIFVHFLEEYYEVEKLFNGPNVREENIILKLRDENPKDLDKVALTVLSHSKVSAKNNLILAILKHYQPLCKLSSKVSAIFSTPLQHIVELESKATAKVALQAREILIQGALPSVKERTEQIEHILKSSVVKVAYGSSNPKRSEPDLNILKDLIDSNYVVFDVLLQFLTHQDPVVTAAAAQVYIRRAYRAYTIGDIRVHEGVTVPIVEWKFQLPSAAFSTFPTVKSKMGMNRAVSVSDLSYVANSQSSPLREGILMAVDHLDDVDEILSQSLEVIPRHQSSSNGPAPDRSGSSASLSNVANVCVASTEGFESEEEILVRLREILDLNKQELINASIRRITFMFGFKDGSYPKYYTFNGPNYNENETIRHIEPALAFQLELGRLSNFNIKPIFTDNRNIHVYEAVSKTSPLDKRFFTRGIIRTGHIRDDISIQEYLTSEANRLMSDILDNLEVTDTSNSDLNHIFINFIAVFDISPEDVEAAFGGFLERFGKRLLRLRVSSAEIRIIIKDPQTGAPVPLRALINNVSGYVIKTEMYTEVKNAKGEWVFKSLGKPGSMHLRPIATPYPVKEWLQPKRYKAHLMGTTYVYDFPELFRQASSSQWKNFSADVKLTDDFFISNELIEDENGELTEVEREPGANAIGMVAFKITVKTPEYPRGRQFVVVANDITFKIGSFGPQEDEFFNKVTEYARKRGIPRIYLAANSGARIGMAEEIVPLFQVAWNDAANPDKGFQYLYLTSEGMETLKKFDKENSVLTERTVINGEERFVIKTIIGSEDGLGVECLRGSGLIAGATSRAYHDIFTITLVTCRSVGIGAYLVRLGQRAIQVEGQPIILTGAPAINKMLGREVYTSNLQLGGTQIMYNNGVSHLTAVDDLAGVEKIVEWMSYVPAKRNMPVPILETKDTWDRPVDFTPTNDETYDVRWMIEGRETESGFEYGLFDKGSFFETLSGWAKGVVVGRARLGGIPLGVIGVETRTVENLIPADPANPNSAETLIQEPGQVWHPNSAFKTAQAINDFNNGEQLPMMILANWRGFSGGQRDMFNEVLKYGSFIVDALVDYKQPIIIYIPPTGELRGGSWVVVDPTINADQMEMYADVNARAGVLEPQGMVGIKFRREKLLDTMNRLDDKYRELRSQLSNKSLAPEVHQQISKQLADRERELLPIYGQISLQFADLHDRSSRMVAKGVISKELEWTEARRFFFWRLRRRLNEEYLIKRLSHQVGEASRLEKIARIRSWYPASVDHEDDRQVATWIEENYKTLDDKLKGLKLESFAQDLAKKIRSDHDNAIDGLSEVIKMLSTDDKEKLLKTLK

Structure (SMILES) | IC50 (fungal (fACC2); Table 2a) [nM] | IC50 (fungal (fACC2); Table 2b, additional results) [nM] | MIC (C. krusei; [5]) [µg/mL] | MIC (C. krusei; [6]) [µg/mL] | IC90 (Septoria tritici (St); [7]) [µg/mL] | IC90 (Septoria tritici (St); [8]) [µg/mL] | Concentration at 90% Inhibition Fm [1, 9] | IC90 [1] [µg/mL] | IC90 [2, 10] [µg/mL] | IC90 [2, 11] [µg/mL] | IC90 [3, 12] [µg/mL] | IC90 [3, 13] [µg/mL] | IC50 (human (hACC2); Table 2a) [nM] | IC50 (human (hACC2); Table 2b, additional results) [nM] | MIC (C. parapsilosis; [14]) [µg/mL] | MIC (C. parapsilosis; [15]) [µg/mL] | IC90 [4, 16] [µg/mL] | IC90 [4, 17] [µg/mL] | IC90 (Rhizoctonia solani (Rs); [18]) [µg/mL] | IC90 (Rhizoctonia solani (Rs); [19]) [µg/mL] | other results
C=CCO[C@@H](Cn1c(=O)n(C(C)(C)C(=O)NC(C)C)c(=O)c2c(C)c(-n3nccn3)sc21)c1cc(F)ccc1OC [Compound I-72, (R)-2-(1-(2-(allyloxy)-2-(5-fluoro-2-methoxyphenyl)ethyl)-5-methyl-2,4-dioxo-6-(2H-1,2,3-triazol-2-yl)-1,4-dihydrothieno[2,3-d]pyrimidin-3(2H)-yl)-N-isopropyl-2-methylpropanamide] | 1 to 5 | 1 to 5 | 0.25 to 1 (≈ 0.428 to 1.71 µM) | 0.25 to 1 (≈ 0.428 to 1.71 µM) | > 50 | > 50 | AA (compound concentration of 0.08 ppm at 90% inhibition of fungal pathogens) | 0.08 (≈ 0.137 µM) | 2 (≈ 3.42 µM) | 2 (≈ 3.42 µM) | 0.4 (≈ 0.684 µM) | 0.4 (≈ 0.684 µM) | 1 to 5 | 1 to 5 | 1.1 to 2 (≈ 1.88 to 3.42 µM) | 1.01 to 2 (≈ 1.73 to 3.42 µM) | > 50 | > 50 | 0.4 (≈ 0.684 µM) | 0.4 (≈ 0.684 µM) | 
COc1ccc(F)cc1[C@H](Cn1c(=O)n(C(C)(C)C(=O)N2CCCC2)c(=O)c2c(C)c(-n3nccn3)sc21)OCCO [Compound I-44, (R)-1-(2-(5-fluoro-2-methoxyphenyl)-2-(2-hydroxyethoxy)ethyl)-5-methyl-3-(2-methyl-1-oxo-1-(pyrrolidin-1-yl)propan-2-yl)-6-(2H-1,2,3-triazol-2-yl)thieno[2,3-d]pyrimidine-2,4(1H,3H)-dione] | 0.4 to 1 | 0.3 to 1 |  |  |  |  |  |  |  |  |  |  | 5 to 10 | 5 to 10 |  |  |  |  |  |  | MIC (C. krusei; Table 3a, ATCC 6258, 3 replicates, MIC recorded at 48 h, read-out: MIC, C. krusei ATCC 6258): 1.1 to 2 µg/mL (≈ 1.83 to 3.33 µM); MIC (C. krusei; Table 3b (additional results), ATCC 6258, 3 replicates, MIC recorded at 48 h, read-out: MIC, C. krusei ATCC 6258): 1.01 to 2 µg/mL (≈ 1.68 to 3.33 µM); IC90 (Septoria tritici (St); Septoria tritici, growth inhibition at 48 hours vs 2% DMSO control, read-out: Concentration at 90% Inhibition St): > 50 µg/mL; IC90 (Septoria tritici (St); Septoria tritici, growth inhibition vs 2% DMSO control at 48 hours, read-out: Concentration at 90% Inhibition St): > 50 µg/mL; IC90 [1, 9]: 0.4 µg/mL (≈ 0.666 µM); IC90 ([1]; Fusarium moniliforme, growth inhibition vs 2% DMSO control at 48 hours): 0.4 µg/mL (≈ 0.666 µM); IC90 ([2]; Collectotrichum graminicola, growth inhibition at 48 hours vs 2% DMSO control, read-out: Concentration at 90% Inhibition Cg): 2 µg/mL (≈ 3.33 µM); IC90 ([2]; Collectotrichum graminicola, growth inhibition vs 2% DMSO control at 48 hours, read-out: Concentration at 90% Inhibition Cg): 2 µg/mL (≈ 3.33 µM); IC90 ([3]; growth inhibition at 48 hours vs 2% DMSO control, read-out: Concentration at 90% Inhibition Fv): 0.4 µg/mL (≈ 0.666 µM); IC90 ([3]; growth inhibition vs 2% DMSO control at 48 hours, read-out: Concentration at 90% Inhibition Fv): 0.4 µg/mL (≈ 0.666 µM); MIC (C. parapsilosis; Table 3a, ATCC 22019, 3 replicates, MIC recorded at 48 h, read-out: MIC, C. parapsilosis ATCC 22019): 2.1 to 4 µg/mL (≈ 3.5 to 6.66 µM); MIC (C. parapsilosis; Table 3b (additional results), ATCC 22019, 3 replicates, MIC recorded at 48 h, read-out: MIC, C. parapsilosis ATCC 22019): 1.01 to 2 µg/mL (≈ 1.68 to 3.33 µM); IC90 ([4]; growth inhibition at 48 hours vs 2% DMSO control, read-out: Concentration at 90% Inhibition Pc): > 50 µg/mL; IC90 ([4]; growth inhibition vs 2% DMSO control at 48 hours, read-out: Concentration at 90% Inhibition Pc): > 50 µg/mL; IC90 (Rhizoctonia solani (Rs); mycelial plugs, growth inhibition at 48 hours vs 2% DMSO control, read-out: Concentration at 90% Inhibition Rs): 2 µg/mL (≈ 3.33 µM); IC90 (Rhizoctonia solani (Rs); mycelial plugs, growth inhibition vs 2% DMSO control at 48 hours, read-out: Concentration at 90% Inhibition Rs): 10 µg/mL (≈ 16.6 µM)
COc1ccc(F)cc1[C@H](Cn1c(=O)n([C@@H](C)C(=O)NC(C)C)c(=O)c2c(C)c(-n3nccn3)sc21)OCCO [Compound I-88, (S)-2-(1-((R)-2-(5-fluoro-2-methoxyphenyl)-2-(2-hydroxyethoxy)ethyl)-5-methyl-2,4-dioxo-6-(2H-1,2,3-triazol-2-yl)-1,4-dihydro-thieno[2,3-d]pyrimidin-3(2H)-yl)-N-isopropylpropanamide] | 1 to 5 | 0.3 to 1 | 0.25 to 1 (≈ 0.435 to 1.74 µM) | 1.01 to 2 (≈ 1.76 to 3.48 µM) | 2 (≈ 3.48 µM) | 10 (≈ 17.4 µM) | AA (compound concentration of 0.08 ppm at 90% inhibition of fungal pathogens) | 0.08 (≈ 0.139 µM) | 0.08 (≈ 0.139 µM) | 0.08 (≈ 0.139 µM) | 2 (≈ 3.48 µM) | 2 (≈ 3.48 µM) | 5 to 10 | 5 to 10 | 1.1 to 2 (≈ 1.91 to 3.48 µM) | 1.01 to 2 (≈ 1.76 to 3.48 µM) | 2 (≈ 3.48 µM) | 2 (≈ 3.48 µM) | 0.08 (≈ 0.139 µM) | 0.08 (≈ 0.139 µM) | 
